As a reminder, the IC50 is the concentration needed to halve the response being measured.

For one compound, IC50 results are on record in US6852719B2, “Glucocorticoid receptor modulators” (Pfizer Inc., priority 2000, dated 2005).

Molecules are shown by their SMILES.

Assay [1] has as its system IL-8 production in SW1353 human chondrosarcoma cells. Description: glucocorticoid inhibition of IL-1 induced IL-8 production in human chondrosarcoma cells. The format is cell-based. The note with it: 20 ng/ml IL-1 beta, 24 hours after IL-1 addition, ELISA, read-out: IC50, inhibition of IL-8 expression. The protocol: (§1) This assay, the glucocorticoid inhibition of IL-1 (Interleukin-1) induced MMP-1 (Matrix Metalloproteinase-1) and IL-8 (Interleukin-8) production in human chondrosarcoma cells, is conducted as follows: SW1353 human chondrosarcoma cells (obtained from ATCC) from passage 12 through passage 19 are used in a 96 well format assay. Cells are plated at confluence into 96 well plates in DMEM (Dulbecco's Modified Eagle Medium) with 10% fetal bovine serum and incubated at 37° C., 5% CO2. After 24 hours, serum containing media is removed and replaced with 200 ul/well DMEM containing 1 mg/L insulin, 2 g/L lactalbumin hydrosylate, and 0.5 mg/L ascorbic acid and returned to incubation at 37° C., 5% CO2. […] IL-8 production is assessed using the Quantikine human IL-8 ELISA kit from R & D Systems (D8050) on samples diluted 60-fold in RD5P Calibrator Diluent, following the manufacturer's protocol. The percent of the average IL-1 control is determined for the average of each of the triplicate samples following subtraction of the average signal from untreated cells. IC50's are determined from log linear plots of the percent of control versus the concentration of inhibitor. […] MMP-1 production is assessed via the Bio-Trak MMP-1 ELISA kit from Amersham (RPN2610) on 100 ul of neat sample following the manufacturer's protocol. […]

Assay [2] relates to MMP-1 production in SW1353 human chondrosarcoma cells. Description: glucocorticoid inhibition of IL-1 induced MMP-1 production in human chondrosarcoma cells. It counts as cell-based. The note with it: 20 ng/ml IL-1 beta, 72 hours after IL-1 addition, ELISA, read-out: IC50, inhibition of MMP1 expression. The protocol: as §1
(In general: ELISA stands for enzyme-linked immunosorbent assay.)

Regarding `C[C@@H]1C[C@H]2[C@@H]3CCC4=CC(=O)C=C[C@]4(C)[C@@]3(F)[C@@H](O)C[C@]2(C)[C@@]1(O)C(=O)CO` [Dexamethasone, (11β, 16α)-9-fluoro-11,17,21-trihydroxy-16-methylpregna-1,4-diene-3,20-dione], the concentration for half-maximal inhibition (IC50) in assay [1] and in assay [2] was 5 nM throughout.
